Experimental data as given in ChEMBL document CHEMBL2176888, “Structure-activity relationships in human Toll-like receptor 8-active 2,3-diamino-furo[2,3-c]pyridines” (J Med Chem, 2012).
Active and inactive are the calls of the source. The calls are words filed in the database; no cut-off is given here.

Columns and labels:
[1] = tested on: PBMC; test: Induction of proinflammatory cytokine release in human PBMC after 12 hrs; assay type: cell-based
[2] = tested on: PBMC; test: Induction of transcriptional signature of inflammatory gene expression in human PBMC cells after 2 hrs; assay type: cell-based
[3] = tested on: PBMC; test: Up-regulation of CXCL gene in human PBMC cells after 2 hrs; assay type: cell-based
[4] = target: T1, Toll-like receptor 8 (Homo sapiens) (UniProt Q9NR97); test: (§1) Agonist activity at human TLR8 expressed in HEK293 cells assessed as induction of NF-kappaB activity by measuring extracellular secreted alkaline phosphatase by HEK-blue reporter gene assay; assay type: functional, cell-based
T1 sequence (whole entry): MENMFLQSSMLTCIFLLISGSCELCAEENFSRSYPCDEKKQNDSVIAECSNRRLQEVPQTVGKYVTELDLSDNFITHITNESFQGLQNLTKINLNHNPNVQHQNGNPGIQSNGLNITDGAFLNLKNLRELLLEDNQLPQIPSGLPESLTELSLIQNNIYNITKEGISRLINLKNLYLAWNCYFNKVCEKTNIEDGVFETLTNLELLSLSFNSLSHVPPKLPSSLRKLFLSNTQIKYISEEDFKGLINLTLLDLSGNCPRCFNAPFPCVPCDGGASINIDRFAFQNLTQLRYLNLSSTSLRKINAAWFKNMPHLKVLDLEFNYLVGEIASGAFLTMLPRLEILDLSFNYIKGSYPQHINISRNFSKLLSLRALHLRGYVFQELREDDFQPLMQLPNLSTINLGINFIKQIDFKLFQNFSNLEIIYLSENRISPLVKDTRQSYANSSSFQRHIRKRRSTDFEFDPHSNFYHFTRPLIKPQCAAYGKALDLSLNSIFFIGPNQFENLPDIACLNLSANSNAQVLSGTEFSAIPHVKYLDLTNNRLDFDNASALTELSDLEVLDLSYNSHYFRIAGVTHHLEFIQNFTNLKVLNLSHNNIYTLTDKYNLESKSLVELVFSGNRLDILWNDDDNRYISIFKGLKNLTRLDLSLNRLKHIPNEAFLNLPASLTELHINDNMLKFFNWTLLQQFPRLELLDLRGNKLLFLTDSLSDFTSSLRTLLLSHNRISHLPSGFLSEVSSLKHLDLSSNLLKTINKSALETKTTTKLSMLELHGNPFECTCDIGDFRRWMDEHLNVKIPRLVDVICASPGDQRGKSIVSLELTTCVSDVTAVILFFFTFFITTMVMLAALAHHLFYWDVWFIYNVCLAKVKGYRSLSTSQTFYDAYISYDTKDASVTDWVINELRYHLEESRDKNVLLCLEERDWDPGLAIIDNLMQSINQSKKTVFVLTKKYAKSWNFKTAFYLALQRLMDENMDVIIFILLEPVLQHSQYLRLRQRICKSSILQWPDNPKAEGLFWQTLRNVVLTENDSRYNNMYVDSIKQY

[5] = target: T2, Toll-like receptor 8 (Homo sapiens, UniProt Q9NR97); test: as §1; assay type: functional, cell-based; details: read-out: EC50
T2 sequence (Q9NR97 whole entry): T1 sequence (whole entry)

[6] = tested on: PBMC; test: Up-regulation of CCL gene in human PBMC cells after 2 hrs; assay type: cell-based
[7] = target: T3, Toll-like receptor 9 (Homo sapiens) (UniProt Q9NR96); test: Agonist activity at human TLR9 expressed in HEK293 cells assessed as induction of NF-kappaB activity by measuring extracellular secreted alkaline phosphatase up to 250 uM by HEK-blue reporter gene assay; assay type: functional, cell-based
T3 sequence (whole entry): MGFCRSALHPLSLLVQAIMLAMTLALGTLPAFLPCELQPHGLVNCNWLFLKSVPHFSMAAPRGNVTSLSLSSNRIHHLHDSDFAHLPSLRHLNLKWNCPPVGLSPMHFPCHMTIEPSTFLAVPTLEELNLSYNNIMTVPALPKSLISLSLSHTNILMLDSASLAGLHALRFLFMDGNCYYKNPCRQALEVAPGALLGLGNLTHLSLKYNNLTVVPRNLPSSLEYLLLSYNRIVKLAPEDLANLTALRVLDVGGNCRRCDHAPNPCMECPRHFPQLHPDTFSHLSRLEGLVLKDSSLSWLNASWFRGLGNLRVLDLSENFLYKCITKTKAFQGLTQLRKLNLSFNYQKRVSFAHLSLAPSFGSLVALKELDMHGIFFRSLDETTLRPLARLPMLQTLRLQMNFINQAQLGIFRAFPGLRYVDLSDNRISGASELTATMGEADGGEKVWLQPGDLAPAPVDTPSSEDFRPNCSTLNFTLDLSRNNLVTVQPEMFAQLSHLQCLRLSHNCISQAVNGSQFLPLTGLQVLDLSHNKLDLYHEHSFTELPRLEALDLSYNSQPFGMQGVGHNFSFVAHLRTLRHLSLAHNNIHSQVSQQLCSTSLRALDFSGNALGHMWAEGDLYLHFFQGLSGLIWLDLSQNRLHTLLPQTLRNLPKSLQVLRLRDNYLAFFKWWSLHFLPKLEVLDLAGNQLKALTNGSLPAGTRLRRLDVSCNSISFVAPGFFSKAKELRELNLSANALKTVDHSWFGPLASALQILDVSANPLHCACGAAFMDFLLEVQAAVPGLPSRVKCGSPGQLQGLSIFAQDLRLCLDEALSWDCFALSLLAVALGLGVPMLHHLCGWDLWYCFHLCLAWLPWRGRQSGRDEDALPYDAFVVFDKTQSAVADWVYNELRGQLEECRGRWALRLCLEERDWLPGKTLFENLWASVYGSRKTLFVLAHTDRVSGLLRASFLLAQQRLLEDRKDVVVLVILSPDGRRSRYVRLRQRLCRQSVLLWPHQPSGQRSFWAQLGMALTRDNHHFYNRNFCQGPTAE

[8] = target: T1, Toll-like receptor 8 (Homo sapiens); test: Agonist activity at human TLR8 expressed in HEK293 cells assessed as induction of NF-kappaB activity by measuring extracellular secreted alkaline phosphatase up to 250 uM by HEK-blue reporter gene assay; assay type: functional, cell-based
[9] = target: T4, Toll-like receptor 7 (Homo sapiens) (UniProt Q9NYK1); test: Agonist activity at human TLR7 expressed in HEK293 cells assessed as induction of NF-kappaB activity by measuring extracellular secreted alkaline phosphatase up to 250 uM by HEK-blue reporter gene assay; assay type: functional, cell-based
T4 sequence (whole entry): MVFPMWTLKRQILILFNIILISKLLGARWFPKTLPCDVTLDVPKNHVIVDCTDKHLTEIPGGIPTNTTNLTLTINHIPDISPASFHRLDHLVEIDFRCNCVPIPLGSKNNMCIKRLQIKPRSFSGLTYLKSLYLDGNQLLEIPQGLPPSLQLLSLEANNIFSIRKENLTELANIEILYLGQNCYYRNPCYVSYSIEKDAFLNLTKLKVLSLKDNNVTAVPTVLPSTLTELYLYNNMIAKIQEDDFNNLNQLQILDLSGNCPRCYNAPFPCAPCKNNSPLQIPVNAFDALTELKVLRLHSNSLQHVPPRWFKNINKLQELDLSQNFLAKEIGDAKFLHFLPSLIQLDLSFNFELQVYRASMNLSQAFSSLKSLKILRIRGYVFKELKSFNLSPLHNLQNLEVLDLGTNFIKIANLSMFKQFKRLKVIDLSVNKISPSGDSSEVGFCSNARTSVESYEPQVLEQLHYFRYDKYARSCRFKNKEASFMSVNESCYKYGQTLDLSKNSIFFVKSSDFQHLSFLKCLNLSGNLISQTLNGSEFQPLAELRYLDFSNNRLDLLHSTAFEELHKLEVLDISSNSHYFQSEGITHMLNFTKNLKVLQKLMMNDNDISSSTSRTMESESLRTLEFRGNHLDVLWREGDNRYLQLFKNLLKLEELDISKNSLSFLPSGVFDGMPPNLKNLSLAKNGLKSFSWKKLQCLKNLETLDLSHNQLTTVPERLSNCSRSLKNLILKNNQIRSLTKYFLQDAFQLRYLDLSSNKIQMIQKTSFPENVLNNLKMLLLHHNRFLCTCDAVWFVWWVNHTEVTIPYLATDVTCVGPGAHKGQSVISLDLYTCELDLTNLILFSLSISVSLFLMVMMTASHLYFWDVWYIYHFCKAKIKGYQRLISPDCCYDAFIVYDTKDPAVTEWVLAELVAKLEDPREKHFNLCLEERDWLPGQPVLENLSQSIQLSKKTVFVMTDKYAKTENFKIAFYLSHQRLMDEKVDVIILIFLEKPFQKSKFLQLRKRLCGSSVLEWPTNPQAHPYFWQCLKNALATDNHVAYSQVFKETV

[10] = target: Toll-like receptor 5 (Homo sapiens) (UniProt O60602); test: Agonist activity at human TLR5 expressed in HEK293 cells assessed as induction of NF-kappaB activity by measuring extracellular secreted alkaline phosphatase up to 250 uM by HEK-blue reporter gene assay; assay type: functional, cell-based
[11] = target: Toll-like receptor 4 (Homo sapiens) (UniProt O00206); test: Agonist activity at human TLR4 expressed in HEK293 cells assessed as induction of NF-kappaB activity by measuring extracellular secreted alkaline phosphatase up to 250 uM by HEK-blue reporter gene assay; assay type: functional, cell-based
[12] = target: Toll-like receptor 3 (Homo sapiens) (UniProt O15455); test: Agonist activity at human TLR3 expressed in HEK293 cells assessed as induction of NF-kappaB activity by measuring extracellular secreted alkaline phosphatase up to 250 uM by HEK-blue reporter gene assay; assay type: functional, cell-based
[13] = species: Oryctolagus cuniculus; test: Adjuvantic activity in New Zealand White rabbit immunized with bovine alpha-lactalbumin on day 1, 15, and 28 assessed as anti-alpha-lactalbumin IgG level in serum at 100 ug measured on day 38 by ELISA; assay type: functional, organism-based

Toll-like receptor 4 (Homo sapiens), sequence (O00206 whole entry): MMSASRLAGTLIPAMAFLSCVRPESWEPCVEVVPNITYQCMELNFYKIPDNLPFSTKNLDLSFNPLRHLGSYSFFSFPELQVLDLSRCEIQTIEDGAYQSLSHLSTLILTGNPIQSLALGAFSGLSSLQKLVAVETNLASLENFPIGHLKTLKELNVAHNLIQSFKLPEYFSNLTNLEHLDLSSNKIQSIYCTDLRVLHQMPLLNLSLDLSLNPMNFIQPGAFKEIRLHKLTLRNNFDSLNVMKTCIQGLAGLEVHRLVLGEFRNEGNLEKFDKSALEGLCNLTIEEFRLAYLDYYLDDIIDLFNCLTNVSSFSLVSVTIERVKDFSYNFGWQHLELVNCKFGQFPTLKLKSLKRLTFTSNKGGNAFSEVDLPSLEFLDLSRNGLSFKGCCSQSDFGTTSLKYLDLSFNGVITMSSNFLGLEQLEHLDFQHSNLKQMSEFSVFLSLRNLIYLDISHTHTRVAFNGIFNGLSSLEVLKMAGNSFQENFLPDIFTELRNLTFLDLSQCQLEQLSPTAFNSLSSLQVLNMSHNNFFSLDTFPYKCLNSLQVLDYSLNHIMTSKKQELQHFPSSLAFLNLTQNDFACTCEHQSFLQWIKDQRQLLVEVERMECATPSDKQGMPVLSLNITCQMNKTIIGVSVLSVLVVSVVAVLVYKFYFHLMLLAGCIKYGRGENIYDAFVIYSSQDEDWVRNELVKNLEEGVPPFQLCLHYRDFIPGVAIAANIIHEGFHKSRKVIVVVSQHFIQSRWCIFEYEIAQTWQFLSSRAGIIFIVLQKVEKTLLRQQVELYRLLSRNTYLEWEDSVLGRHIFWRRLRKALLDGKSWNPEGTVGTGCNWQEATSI
Toll-like receptor 3 (Homo sapiens), sequence (O15455 whole entry): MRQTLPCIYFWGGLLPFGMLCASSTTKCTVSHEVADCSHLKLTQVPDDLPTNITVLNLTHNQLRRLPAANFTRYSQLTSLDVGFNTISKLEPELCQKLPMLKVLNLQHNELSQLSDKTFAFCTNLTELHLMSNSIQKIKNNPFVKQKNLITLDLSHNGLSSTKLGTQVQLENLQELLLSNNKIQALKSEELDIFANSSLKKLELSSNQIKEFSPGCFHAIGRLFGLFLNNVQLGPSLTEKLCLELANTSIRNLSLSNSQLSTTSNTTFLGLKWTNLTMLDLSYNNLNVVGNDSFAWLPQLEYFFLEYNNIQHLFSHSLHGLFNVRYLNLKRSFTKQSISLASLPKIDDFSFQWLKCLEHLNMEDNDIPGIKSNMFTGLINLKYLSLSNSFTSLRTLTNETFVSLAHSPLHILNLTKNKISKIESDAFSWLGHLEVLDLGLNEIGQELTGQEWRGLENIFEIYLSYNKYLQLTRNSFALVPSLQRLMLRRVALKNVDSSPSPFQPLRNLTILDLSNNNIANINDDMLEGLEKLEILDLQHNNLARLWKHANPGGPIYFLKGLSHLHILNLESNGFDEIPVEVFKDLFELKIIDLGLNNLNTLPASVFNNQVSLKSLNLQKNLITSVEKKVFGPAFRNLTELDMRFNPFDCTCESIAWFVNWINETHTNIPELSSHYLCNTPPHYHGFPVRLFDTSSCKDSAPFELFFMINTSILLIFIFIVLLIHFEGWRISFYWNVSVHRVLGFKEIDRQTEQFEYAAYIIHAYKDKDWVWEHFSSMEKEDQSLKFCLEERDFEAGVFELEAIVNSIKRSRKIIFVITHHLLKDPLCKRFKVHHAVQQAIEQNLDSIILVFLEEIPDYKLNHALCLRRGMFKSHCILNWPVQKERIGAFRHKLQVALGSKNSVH
Toll-like receptor 5 (Homo sapiens), sequence (O60602 whole entry): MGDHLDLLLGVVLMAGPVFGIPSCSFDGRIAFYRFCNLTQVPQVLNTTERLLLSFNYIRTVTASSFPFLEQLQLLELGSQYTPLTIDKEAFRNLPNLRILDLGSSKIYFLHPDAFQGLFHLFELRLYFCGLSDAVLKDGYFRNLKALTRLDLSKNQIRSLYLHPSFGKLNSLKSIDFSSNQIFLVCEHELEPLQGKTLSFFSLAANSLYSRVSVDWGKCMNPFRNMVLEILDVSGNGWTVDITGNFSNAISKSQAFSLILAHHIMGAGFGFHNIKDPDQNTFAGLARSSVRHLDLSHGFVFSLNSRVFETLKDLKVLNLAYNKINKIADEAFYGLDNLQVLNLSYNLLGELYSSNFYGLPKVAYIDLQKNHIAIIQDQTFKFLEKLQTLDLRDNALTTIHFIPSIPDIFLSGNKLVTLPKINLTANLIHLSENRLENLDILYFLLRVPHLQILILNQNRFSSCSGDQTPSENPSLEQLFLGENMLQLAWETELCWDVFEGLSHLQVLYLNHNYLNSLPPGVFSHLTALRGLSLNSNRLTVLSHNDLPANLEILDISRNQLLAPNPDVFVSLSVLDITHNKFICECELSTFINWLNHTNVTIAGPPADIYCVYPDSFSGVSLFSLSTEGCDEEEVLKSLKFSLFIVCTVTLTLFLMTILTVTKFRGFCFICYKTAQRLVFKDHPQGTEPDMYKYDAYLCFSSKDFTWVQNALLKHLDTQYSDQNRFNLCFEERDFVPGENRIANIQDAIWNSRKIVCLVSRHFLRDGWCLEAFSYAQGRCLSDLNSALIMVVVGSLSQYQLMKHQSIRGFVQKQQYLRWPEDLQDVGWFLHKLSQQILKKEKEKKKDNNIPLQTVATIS

| Structure (SMILES) | Activity [4] | EC50 [5] [µM] | Activity [7] | Activity [8] | Activity [9] | Activity [10] | Activity [11] | Activity [12] | Activity [1] | Activity [2] | Activity [3] | Activity [6] | Activity [13] |
| --- | --- | --- | --- | --- | --- | --- | --- | --- | --- | --- | --- | --- | --- |
| CCCc1nc2c(N)nc3ccccc3c2s1 | – | – | – | – | – | – | – | – | Toxic | – | – | – | – |
| Cc1ncc(CO)c2c(Nc3ccccn3)c(NC[Si](C)(C)C)oc12 | Dose-dependent effect | 4.99 | – | – | – | – | – | – | Non-toxic | Non-toxic | Toxic | Toxic | – |
| CCCCNc1oc2c(C)ncc(CO)c2c1Nc1ccccn1 | Dose-dependent effect | 9.38 | – | – | – | – | – | – | Non-toxic | – | – | – | – |
| CCCCCNc1oc2c(C)ncc(CO)c2c1Nc1ccccn1 | Dose-dependent effect | 5.81 | – | – | – | – | – | – | Non-toxic | Non-toxic | Toxic | Toxic | Active |
| CCCCc1nc2c(N)nccn2c1Nc1ccc(OC)cc1 | – | – | inactive | inactive | inactive | inactive | inactive | inactive | – | – | – | – | – |
| Cc1ncc(CO)c2c(Nc3ccccn3)c(NCc3ccccc3)oc12 | Dose-dependent effect | 4.91 | – | – | – | – | – | – | Non-toxic | – | – | – | – |
| Oc1ccccc1-c1nc2ccccn2c1NCc1ccccc1 | – | – | inactive | inactive | inactive | inactive | inactive | inactive | – | – | – | – | – |

The next lines start with results.

| Activity [4] | EC50 [5] [µM] | Activity [7] | Activity [8] | Activity [9] | Activity [10] | Activity [11] | Activity [12] | Structure (SMILES) | Activity [1] | Activity [2] | Activity [3] | Activity [6] | Activity [13] |
| --- | --- | --- | --- | --- | --- | --- | --- | --- | --- | --- | --- | --- | --- |
| – | – | inactive | inactive | inactive | inactive | inactive | inactive | Nc1nccn2c(NC3CCCCC3)c(-c3ccccc3)nc12 | – | – | – | – | – |
| – | – | inactive | inactive | inactive | inactive | inactive | inactive | CCCCc1nc2c(N)nccn2c1NCc1ccccc1 | – | – | – | – | – |
| – | – | inactive | inactive | inactive | inactive | inactive | inactive | Oc1ccccc1-c1nc2cnccn2c1NCc1ccccc1 | – | – | – | – | – |
| – | – | inactive | inactive | inactive | inactive | inactive | inactive | c1cc(-c2nc3cnccn3c2NC2CCCCC2)ccn1 | – | – | – | – | – |
| – | – | inactive | inactive | inactive | inactive | inactive | inactive | c1ccc(CNc2c(-c3ccccc3)nc3cnccn23)cc1 | – | – | – | – | – |
| – | – | inactive | inactive | inactive | inactive | inactive | inactive | CC(C)(C)Nc1c(-c2ccncc2)nc2cnccn12 | – | – | – | – | – |
| – | – | inactive | inactive | inactive | inactive | inactive | inactive | CC(C)(C)Nc1c(-c2ccccc2)nc2cnccn12 | – | – | – | – | – |
| – | – | inactive | inactive | inactive | inactive | inactive | inactive | CC(C)(C)Nc1c(-c2ccccc2O)nc2cnccn12 | – | – | – | – | – |
| – | – | inactive | inactive | inactive | inactive | inactive | inactive | c1ccc(-c2nc3ccccn3c2NC2CCCCC2)cc1 | – | – | – | – | – |
| – | – | inactive | inactive | inactive | inactive | inactive | inactive | c1ccc(-c2nc3cnccn3c2NC2CCCCC2)cc1 | – | – | – | – | – |
